This passage reports Kd results from article PMC6096477, “Structure of a Talaromyces pinophilus GH62 arabinofuranosidase in complex with AraDNJ at 1.25 Å resolution” (Acta Crystallographica. Section F, Structural Biology …, 2018).

The target in the assay is T1, Talaromyces pinophilus GH62 arabinofuranosidase (Talaromyces pinophilus, UniProt A0A2H5BN17).
T1 construct: single-module GH62 enzyme, secreted from Aspergillus oryzae; about 35 kDa; amino-terminal residue Ser24; chain traced 25-325; 2 subunits in asymmetric unit; no tag mentioned
The assay is described as follows: isothermal titration calorimetry. Format: binding.

The structures appear in SMILES notation.

In general, Kd refers to the equilibrium constant for the complex coming apart.

T1 sequence (A0A2H5BN17 entry or part of it): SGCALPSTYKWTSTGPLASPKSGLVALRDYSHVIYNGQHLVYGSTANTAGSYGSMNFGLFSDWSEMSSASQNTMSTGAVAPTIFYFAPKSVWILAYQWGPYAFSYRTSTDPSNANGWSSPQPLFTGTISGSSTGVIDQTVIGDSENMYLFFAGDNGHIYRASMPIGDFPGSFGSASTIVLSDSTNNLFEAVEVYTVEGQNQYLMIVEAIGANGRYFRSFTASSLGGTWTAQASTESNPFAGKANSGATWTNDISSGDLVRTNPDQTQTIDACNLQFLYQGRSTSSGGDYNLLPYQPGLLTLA

Regarding `OC[C@@H]1NC[C@H](O)[C@H]1O` [AraDNJ, 1,4-dideoxy-l,4-imino-L-arabinitol], the dissociation constant Kd is 24 ± 0.4 µM.
